Series [1] has as its system several viruses. To be noted: in vitro; cited from earlier work.
Series [2] can be described thus: Pharmacokinetic study in rats via gavage administration, plasma GS441 by LC-MS/MS. To be noted: equimolar doses. The series is classed as in vivo, Sprague-Dawley rats. The procedure:
A pharmacokinetic study was carried out in vivo using Sprague-Dawley rats to assess the behavior of NGP-1 when administered orally through the gastrointestinal route. The rats were randomly categorized into two groups (n = 6) and subjected to a 12 h overnight fast prior to oral administration. […] After administration, 0.5 mL of orbital blood was collected at specific time intervals in an EP tube with heparin moisturizing.
All the blood samples were promptly centrifuged at 4 °C to separate the upper plasma. A volume of 50 µL of plasma was subsequently transferred to a tube pre-filled with 450 µL of protein precipitant (H2O:ACN:MeOH = 1:4:4 containing 20 ng/mL of QX). […] After thorough mixing, the samples underwent high-speed centrifugation. The supernatants were extracted and centrifugated again. The resulting supernatants were collected and transferred into a vial for subsequent analysis.
The AB SCIEX QTRAP®4500 instrument, which comprised an LC system (ExionLC^TM, SCIEX, Framingham, MA, USA) and a triple-quadrupole mass spectrometer with an ESI interface, was used for the experiment. […] The data were acquired and analyzed using Analyst 1.7.3 coupled with MultiQuant 3.0.3 (SCIEX).

Series [3] is described as follows: Stability of NGP-1 in artificial digestive juices (HPLC-DAD). It counts as in vitro ADME. The text has this:
Esterification is the predominant reaction used for the generation of prodrugs, owing to the facile hydrolysis of esters by various and ubiquitous esterases present in the various matrices. However, the presence of esters, particularly cyclic lactones, may result in instability in acidic, basic, or esterase environments. In this study, HPLC-DAD was employed to assess the stability of NGP-1 in different artificial digestive juices. The test samples were collected at various time intervals subsequent to dissolving NGP-1 in artificial gastric juice (diluted HCl with pepsin, pH = 1.5) and artificial intestinal juice (PBS with trypsin, pH = 6.8).
Mobile phase A consisted of a phosphoric acid solution, while mobile phase B consisted of ACN. Gradient elution was employed to separate the components under the following conditions: 0–4 min, 30–50% B; 4–10 min, 50% B. The specific parameters for liquid chromatography are presented in Table 2. […] Then, the content of the objective analytes in each sample was calculated using the external standard method.

In the case of `N#C[C@@]1(c2ccc3c(N)ncnn23)O[C@H](CO)[C@@H](O)[C@H]1O` [GS441], the “EC50 comparison GS441 vs RDV” value in series [1] was “higher EC50 than RDV”.
`CC(C)C(=O)OC[C@H]1O[C@@](C#N)(c2ccc3c(N)ncnn23)[C@@H]2OC(=O)O[C@@H]21` [NGP-1]: in series [2], the “AUC0–∞ of converted GS441 relative to directly administered GS441” value was “approximately four”; the “Frel / oral bioavailability of NGP-1 relative to GS441” value is “approximately four and four”. The “Degradation rate in artificial gastric juice” value in series [3] (AGJ, diluted HCl with pepsin, pH = 1.5) was “accelerate significantly”. In series [3] (AIJ, PBS with trypsin, pH 6.8), the “Stability in artificial intestinal juice” value is given as “relatively stable”.
For `CCC(CC)COC(=O)[C@H](C)N[P@](=O)(OC[C@H]1O[C@@](C#N)(c2ccc3c(N)ncnn23)[C@H](O)[C@@H]1O)Oc1ccccc1` [RDV, remdesivir], the “EC50 comparison GS441 vs RDV” value in series [1] is listed as “more potent”.
